What was measured:
[1] = test system: L. acidophilus NCFM; test: Plant glycoside uptake and metabolite analysis of L. acidophilus NCFM culture supernatants by UHPLC-DAD-Q-TOF-MS; type: cell-based, Lactobacillus acidophilus; details: qualitative: depletion of the plant glycoside and/or appearance of its metabolites
Experimental: (§1) For initial growth and gene expression studies, L. acidophilus NCFM was propagated three times in semi-defined medium (SDM) supplemented with either 1% or 0,5% (w/v) of the plant glycoside or carbohydrate (Table 1). For the RNA-seq analysis, cells were harvested by centrifugation (3,220×10 min, 25° C.) in the mid-exponential phase (OD600=0.6-0.8) and stored at −80° C. for subsequent RNA isolation. For the mass spectrometry metabolite analyses, 200 μt samples were taken at 0, 3, 6, 9, 12, and 24 hours of growth; cells were removed by centrifugation; and supernatants were stored at −80° C. for further analysis.
Analysis of plant glycoside uptake from L. acidophilus NCFM culture supernatants using mass spectrometry. The supernatants of L. acidophilus NCFM cultures grown on amygdalin, arbutin, esculin or salicin as carbon sources were analyzed during 24 hours by ultra-high performance liquid chromatography-diode array detection-quadruple time of flight mass spectrometry (UHPLC-DAD-Q-TOF-MS). Samples were diluted 1:20 (v/v) with methanol and an injection volume of […] was used. Separation was carried out on an Agilent Poroshell 120 phenyl-hexyl column (2.1×150 mm, 2.7 μm) using the Agilent Infinity 1290 UHPLC system (Agilent Technologies, Santa Clara, Calif., USA) equipped with a UV/vis spectrum diode array detector. Separation was performed at 0.35 mL min-1., 60° C. with a linear gradient consisting of water (A) and acetonitrile (B) both buffered with 20 mM formic acid, starting at 10% B and increased to 100% in 15 min where it was held for 2 min, returned to 10% in 0.1 min and kept for 3 min. MS detection was performed on an Agilent 6550 iFunnel QTOF MS equipped with Agilent Dual Jet Stream electrospray ion source with the drying gas temperature of 160° C. and gas flow of 13 L min^−1, whereas the sheath gas temperature was 300° C. and flow was 16 L min-1. Ionization was conducted in ESI-mode with capillary voltage set to 4000 V and nozzle voltage to 500 V. Mass spectra were recorded as centroid data for m/z 85-1700 in MS mode with an acquisition rate of 10 spectra s^−1. To avoid carry-over, the needle seat was back-flushed for 15 s at 4 mL min-1 with each of: i) isopropanol: 0.2% ammonium hydroxide (w/v) in water (1:1 v/v); ii) acetonitrile with 2% formic acid (w/v); iii) water with 2% formic acid. Data was processed with the Agilent Mass Hunter Qualitative Analysis B.07.00 software package (Agilent Technologies) and molar concentrations were obtained from standard curves of the plant glycosides and their main metabolites. Targeted compound searches were performed using lists of previously identified compounds plus standard chemical modifications.

[2] = test system: L. acidophilus NCFM; test: Growth of L. acidophilus NCFM on plant glycosides as single carbon source (OD600); type: cell-based, Lactobacillus acidophilus; details: for OD600 max: single carbon source, 200 μl cultures, 96 microtitre plates, corrected for medium without carbon source
Experimental: as §1
(§2) Phenotypic growth assays were performed using 1% (v/v) overnight cultures of L. acidophilus strains (Table 2) and other Lactobacillus species (Table 3) grown on SDM supplemented with 1% (w/v) glucose to inoculate 200 μL of SDM supplemented with 1% (w/v) of the examined carbohydrate (0.5% in the case of esculin) in 96-well microplate wells (Corning Costar, Corning, N.Y., USA) in duplicate or triplicate wells, respectively. The microplates were sealed with clear adhesive film, incubated at 37° C. in a Fluostar Optima microplate reader (BMG Labtech, Cary, N.C., USA), and the cell optical density (OD600) was monitored for 30 hours.
The growth of L. acidophilus NCFM was evaluated on twelve chemically diverse, nutritionally relevant and/or therapeutically active PGs 1; Table 1). FIG. 1A provides the structures and common sources of plant glycoside substrates described herein. The compounds that support growth of Lactobacillus acidophilus are in green. RI: β-D-Glcp; R2: Gentiobioside (β-D-Glcp-(1,6)-D-Glcp); R3: Rutinoside (α-L-Rhaf-(1,6)-D-Glcp). The graph in FIG. 1B depicts plant glycoside utilization analyzed by mass spectrometry and the growth as the maximum OD600. Due to the low solubility of polydatin, OD600 cannot be used as a growth metric and utilization of this compound is confirmed by the production of lactate as well as a high utilization level based on the metabolite analysis.

[3] = test system: L. animalis DSM 20602; test: Phenotypic growth assay (OD600); type: cell-based; details: SDM + 1% (w/v) carbohydrate (0.5% esculin), 37° C., 30 hours; corrected to medium without carbohydrate
Experimental: as §2

[4] = test system: L. jensenii ATCC 25258, 62G, DSM 20557; test: Phenotypic growth assay (OD600); type: cell-based; details: SDM + 1% (w/v) carbohydrate (0.5% esculin), 37° C., 30 hours; corrected to medium without carbohydrate
Experimental: as §2

[5] = test system: L. reuteri (ATCC 23272, DSM 20016); test: Phenotypic growth assay (OD600); type: cell-based; details: SDM + 1% (w/v) carbohydrate (0.5% esculin), 37° C., 30 hours; corrected to medium without carbohydrate
Experimental: as §2

[6] = test system: L. johnsonii ATCC 33200; test: Phenotypic growth assay (OD600); type: cell-based; details: SDM + 1% (w/v) carbohydrate (0.5% esculin), 37° C., 30 hours; corrected to medium without carbohydrate
Experimental: as §2

[7] = test system: L. amyloverus ATCC 33620, DSM 20531; test: Phenotypic growth assay (OD600); type: cell-based; details: SDM + 1% (w/v) carbohydrate (0.5% esculin), 37° C., 30 hours; corrected to medium without carbohydrate
Experimental: as §2

[8] = test system: L. gasseri ATCC 33323; test: Phenotypic growth assay (OD600); type: cell-based; details: SDM + 1% (w/v) carbohydrate (0.5% esculin), 37° C., 30 hours; corrected to medium without carbohydrate
Experimental: as §2

[9] = test system: L. rhanmosus GG (ATCC 53103); test: Phenotypic growth assay (OD600); type: cell-based; details: SDM + 1% (w/v) carbohydrate (0.5% esculin), 37° C., 30 hours; corrected to medium without carbohydrate
Experimental: as §2

[10] = test system: L. helveticus CNRZ32; test: Phenotypic growth assay (OD600); type: cell-based; details: SDM + 1% (w/v) carbohydrate (0.5% esculin), 37° C., 30 hours; corrected to medium without carbohydrate
Experimental: as §2

[11] = test system: L. intestinalis Th4, ATCC 49335, DSM 6629; test: Phenotypic growth assay (OD600); type: cell-based; details: SDM + 1% (w/v) carbohydrate (0.5% esculin), 37° C., 30 hours; corrected to medium without carbohydrate
Experimental: as §2

[12] = test system: L. plantarum sp. plantarum ATCC 14917, LA70; test: Phenotypic growth assay (OD600); type: cell-based; details: SDM + 1% (w/v) carbohydrate (0.5% esculin), 37° C., 30 hours; corrected to medium without carbohydrate
Experimental: as §2

[13] = test system: L. fermentum ATCC 14931; test: Phenotypic growth assay (OD600); type: cell-based; details: SDM + 1% (w/v) carbohydrate (0.5% esculin), 37° C., 30 hours; corrected to medium without carbohydrate
Experimental: as §2

[14] = test system: L. acidophilus LA-1; test: Phenotypic growth assay (OD600); type: cell-based; details: SDM + 1% (w/v) carbohydrate (0.5% esculin), 37° C., 30 hours; corrected to medium without carbohydrate
Experimental: as §2

[15] = test system: L. crispatus ATCC 33820, DSM 20584; test: Phenotypic growth assay (OD600); type: cell-based; details: SDM + 1% (w/v) carbohydrate (0.5% esculin), 37° C., 30 hours; corrected to medium without carbohydrate
Experimental: as §2

[16] = growth concentration 0.5% (w/v)

In the case of `COc1cc2ccc(=O)oc2c(O[C@@H]2O[C@H](CO)[C@@H](O)[C@H](O)[C@H]2O)c1O` [Fraxin], the “Catabolism based on MS” value [1, 16] is reported as “Yes” and the OD600 max [2, 16] is reported as 0.4.

`C=CCC(=NOS(=O)(=O)O)S[C@@H]1O[C@H](CO)[C@@H](O)[C@H](O)[C@H]1O` (stereo in doubt) [Sinigrin hydrate] showed an OD600 max [2, 16] of 0.0.

In the case of `OC[C@H]1O[C@@H](Oc2ccc(O)cc2)[C@H](O)[C@@H](O)[C@@H]1O` [Arbutin], the “Catabolism based on MS” value ([1]; growth concentration 1% (w/v)) is reported as “No”, the “Growth (OD600 max class) of L. animalis DSM 20602” value [3] is reported as “+ (“+” signifies 0.3 > OD600 max > 0.1.)” and the “Growth (OD600 max class) of L. jensenii ATCC 25258, 62G, DSM 20557” value [4] is reported as “+ (“+” signifies 0.3 > OD600 max > 0.1.)”. The “Growth (OD600 max class) of L. reuteri (ATCC 23272, DSM 20016)” value [5] was “− (“−” signifies OD600 max < 0.1.)”, the “Growth (OD600 max class) of L. johnsonii ATCC 33200” value [6] was “+ (“+” signifies 0.3 > OD600 max > 0.1.)” and the “Growth (OD600 max class) of L. amyloverus ATCC 33620, DSM 20531” value [7] was “− (“−” signifies OD600 max < 0.1.)”. For the same molecule, the “Growth (OD600 max class) of L. gasseri ATCC 33323” value [8] was “− (“−” signifies OD600 max < 0.1.)”, the “Growth (OD600 max class) of L. rhanmosus GG (ATCC 53103)” value [9] was “+++ (“+++” signifies OD600 max > 0.6.)” and the “Growth (OD600 max class) of L. helveticus CNRZ32” value [10] was “− (“−” signifies OD600 max < 0.1.)”. For the same molecule, the “Growth (OD600 max class) of L. intestinalis Th4, ATCC 49335, DSM 6629” value [11] was “− (“−” signifies OD600 max < 0.1.)”, the “Growth (OD600 max class) of L. plantarum sp. plantarum ATCC 14917, LA70” value [12] was “+++ (“+++” signifies OD600 max > 0.6.)” and the “Growth (OD600 max class) of L. fermentum ATCC 14931” value [13] was “− (“−” signifies OD600 max < 0.1.)”. The “Growth (OD600 max class) of L. acidophilus LA-1” value [14] was “− (“−” signifies OD600 max < 0.1.)”, the “Growth (OD600 max class) of L. crispatus ATCC 33820, DSM 20584” value [15] was “− (“−” signifies OD600 max < 0.1.)” and the “Growth (OD600 max class) of L. acidophilus NCFM” value ([2]; SDM + 1% (w/v) carbohydrate (0.5% esculin), 37° C., 30 hours, corrected to medium without carbohydrate) was “− (“−” signifies OD600 max < 0.1.)”. The OD600 max ([2]; growth concentration 1% (w/v)) was 0.0.

For `COc1cc(C=O)ccc1O[C@@H]1O[C@H](CO)[C@@H](O)[C@H](O)[C@H]1O` [Vanilin 4-O-β-glucoside], the “Catabolism based on MS” value [1, 16] was “Yes” and the OD600 max [2, 16] was 1.3.

`OCC1=C[C@@H](O)[C@@H]2C=CO[C@@H](O[C@@H]3O[C@H](CO)[C@@H](O)[C@H](O)[C@H]3O)[C@H]12` [Aucubin] was tested, and the “Catabolism based on MS” value [1, 16] was “No” and the OD600 max [2, 16] was 0.0.

In the case of `C[C@@H]1O[C@@H](OC[C@H]2O[C@@H](Oc3c(-c4ccc(O)c(O)c4)oc4cc(O)cc(O)c4c3=O)[C@H](O)[C@@H](O)[C@@H]2O)[C@H](O)[C@H](O)[C@H]1O` [Rutin hydrate], the OD600 max [2, 16] is reported as 0.1.

With `OCc1ccccc1O` [salicyl alcohol] the “ability of the aglycone per se to support growth” value ([2]; data not shown) was “unable to support growth”.

`O=c1c(O[C@@H]2O[C@H](CO)[C@@H](O)[C@H](O)[C@H]2O)c(-c2ccc(O)c(O)c2)oc2cc(O)cc(O)c12` [Isoquercetin] was tested, and the OD600 max [2, 16] was 0.0.

`O=c1c(-c2ccc(O)cc2)coc2cc(O[C@@H]3O[C@H](CO)[C@@H](O)[C@H](O)[C@H]3O)ccc12` [Daidzin] showed an OD600 max [2, 16] of 0.0.

Reference: patent US20200222474A1, “COMPOSITIONS AND METHODS FOR INCREASING PHYTOCHEMICAL BIOAVAILABLITY AND BIOACTIVITY” (North Carolina State University, priority 2017, published 2020)
